Patent publication US20240018140A1, “MODIFIED IMIDAZOPYRIDINES AS GLUCOSYLCERAMIDE SYNTHASE INHIBITORS” (Merck Sharp & Dohme LLC, priority 2020, published 2024)

Molecular target: glucosylceramide synthase (GCS) (Homo sapiens (Human), UniProt Q16739)
Experiment: UDP-Glo glucosylceramide synthase biochemical assay
Settings: endogenous GCS in Golgi preparations from human A375 malignant melanoma skin cells; C6 ceramide and UDP-glucose substrates; 20 h incubation; UDP detected by luminescence
Text: UDP-Glo™ Glucosylceramide Synthase Biochemical Assay
A UDP-Glo™ glucosylceramide synthase biochemical assay was utilized to evaluate the effect of test compounds on the activity of endogenous levels of GCS enzyme contained within Golgi preparations isolated from human A375 malignant melanoma skin cells. The UDP-Glo™ glucosylceramide synthase assay uses UDP-Glucose as a nucleotide-glycosyl donor and ceramide as substrate acceptor molecules. In the reaction, glucosylceramide synthase (GCS) transfers glucose from UDP-Glucose to ceramide. Glucosylceramide and UDP are released as products.
Using Promega's UDP-Glo™ Glycosyltransferase assay kit (Promega Corporation, Madison, WI, USA (Promega)), GCS activity was indirectly measured by detecting the amount of UDP produced. An aliquot of GCS enzyme (1.5 μg crude golgi preparation, total protein) and titrated test compound were aliquoted to each well and incubated for 30 minutes at room temperature. […] An equivalent volume of substrate mixture was then added to each well. Following a 20 h incubation at room temperature to allow for GCS turnover of substrate, an equal volume of UDP detection reagent (Promega) was added to each well and incubated for an additional 75 minutes at room temperature to simultaneously convert the accumulated UDP product into ATP and generate light in a luciferase reaction. The generated light was detected using a luminometer. […] luminescence values (RLUs) were normalized to mean “min” and “max” effects, as determined on each plate. “Min” was defined as the mean of the values of the wells treated with vehicle (DMSO) and which represent 0% inhibition; “max” was defined as the mean of the values of the wells treated with a reference inhibitor and which represent the 100% effect. Values for % Emax and EC50 were determined by best-fitting the normalized data to a curve in Activity Base along a four-parameter logistic nonlinear regression (4PL) model (based on the Levenberg-Marquardt algorithm and defined by the equation below): […]
where: n is 4PMin (bottom of the curve); m is 4PMax (top of the curve); i is IP (inflection point of curve); and p is slope. See Levenberg, K., “A Method for the Solution of Certain Problems in Least Squares”, Quart. Appl. Math. 2, (1944), pp 164-168 and Marquardt, D., “An Algorithm for Least Squares Estimation on Nonlinear Parameters”, SIAM J. Appl. Math. 11, (1963) pp 431-441.

glucosylceramide synthase (GCS), sequence (Q16739 whole entry): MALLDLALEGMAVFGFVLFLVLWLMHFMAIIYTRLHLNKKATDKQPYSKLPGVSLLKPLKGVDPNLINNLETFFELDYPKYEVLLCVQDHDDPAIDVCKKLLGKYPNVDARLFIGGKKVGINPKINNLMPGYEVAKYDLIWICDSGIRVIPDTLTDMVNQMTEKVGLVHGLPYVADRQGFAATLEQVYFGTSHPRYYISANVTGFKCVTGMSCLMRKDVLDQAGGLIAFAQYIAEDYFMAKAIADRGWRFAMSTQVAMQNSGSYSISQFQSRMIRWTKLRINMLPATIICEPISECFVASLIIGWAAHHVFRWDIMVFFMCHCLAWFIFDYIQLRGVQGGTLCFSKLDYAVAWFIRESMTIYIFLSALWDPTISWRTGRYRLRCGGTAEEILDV

`CC(O)c1cn2cc(C(F)(F)F)cc(-c3ccccc3OCC(F)(F)F)c2n1` (single isomer, unassigned) [Compound 63, (R or S) 1-(8-(2-(2,2,2-trifluoroethoxy)phenyl)-6-(trifluoromethyl)imidazo[1,2-a]pyridin-2-yl)ethan-1-ol] and `CC(C)(CO)NC(=O)c1cn2cc(C(F)(F)F)cc(-c3ccccc3OCC(F)(F)F)c2n1` [Compound 37, N-(1-hydroxy-2-methylpropan-2-yl)-8-(2-(2,2,2-trifluoroethoxy)phenyl)-6-(trifluoromethyl)imidazo[1,2-a]pyridine-2-carboxamide] are within 1.5-fold of each other in EC50: 5.7 nM for the first, 4.5 nM for the second.

First: CC(C)(CO)NC(=O)c1cn2cccc(-c3ccccc3OCC(F)(F)F)c2n1 [Compound 1, N-(1-hydroxy-2-methylpropan-2-yl)-8-(2-(2,2,2-trifluoroethoxy)phenyl)imidazo[1,2-a]pyridine-2-carboxamide]
Second: COCC(C)(C)NC(=O)c1cn2cccc(-c3ccccc3OCC(F)(F)F)c2n1 [Compound 11, N-(1-methoxy-2-methylpropan-2-yl)-8-(2-(2,2,2-trifluoroethoxy)phenyl)imidazo[1,2-a]pyridine-2-carboxamide]
The EC50 of the first is 3.9-fold lower: 9.8 nM for the first, 38 nM for the second. The first is the more potent here.

Compared with `CC(C)(NC(=O)c1cn2cccc(-c3ccccc3OCC(F)(F)F)c2n1)C(F)(F)F` [Compound 3, N-(1,1,1-trifluoro-2-methylpropan-2-yl)-8-(2-(2,2,2-trifluoroethoxy)phenyl)imidazo[1,2-a]pyridine-2-carboxamide], `CC(C)(NC(=O)c1cn2cc(F)cc(-c3ccccc3OCC(F)(F)F)c2n1)C(F)(F)F` [Compound 41, 6-fluoro-N-(1,1,1-trifluoro-2-methylpropan-2-yl)-8-(2-(2,2,2-trifluoroethoxy)phenyl)imidazo[1,2-a]pyridine-2-carboxamide] is 1.8-fold lower in EC50: 3.1 nM for the first, 1.7 nM for the second.

First: C[C@@H](NC(=O)c1cn2cccc(-c3ccccc3OCC(F)(F)F)c2n1)C(F)(F)F [Compound 4, (R)-8-(2-(2,2,2-trifluoroethoxy)phenyl)-N-(1,1,1-trifluoropropan-2-yl)imidazo[1,2-a]pyridine-2-carboxamide]
Second: O=C(N[C@H]1C[C@@H](CO)C1)c1cn2cccc(-c3ccccc3OCC(F)(F)F)c2n1 [Compound 40]
The EC50 of the first is 3.9-fold higher: 26 nM for the first, 6.7 nM for the second.

Going from `O=C(N[C@H]1CCOC1)c1cn2cc(Cl)cc(-c3ccccc3OCC(F)(F)F)c2n1` [Compound 5, (S)-6-chloro-N-(tetrahydrofuran-3-yl)-8-(2-(2,2,2-trifluoroethoxy)phenyl)imidazo[1,2-a]pyridine-2-carboxamide] to `O=C(N[C@H]1CC[C@H](O)CC1)c1cn2cc(Cl)cc(-c3ccccc3OCC(F)(F)F)c2n1` [Compound 24, 6-chloro-N-(trans-4-hydroxycyclohexyl)-8-(2-(2,2,2-trifluoroethoxy)phenyl)imidazo[1,2-a]pyridine-2-carboxamide], the EC50 falls from 0.91 nM to 0.36 nM (2.5-fold). The second is the more potent here.

First: CC(C)(C#N)CNC(=O)c1cn2cc(Cl)cc(-c3ccccc3OCC(F)(F)F)c2n1 [Compound 8, 6-chloro-N-(2-cyano-2-methylpropyl)-8-(2-(2,2,2-trifluoroethoxy)phenyl)imidazo[1,2-a]pyridine-2-carboxamide]
Second: CC(C)(CO)NC(=O)c1cn2cc(Cl)cc(-c3ccccc3OCC(F)(F)F)c2n1 [Compound 20, 6-chloro-N-(1-hydroxy-2-methylpropan-2-yl)-8-(2-(2,2,2-trifluoroethoxy)phenyl)imidazo[1,2-a]pyridine-2-carboxamide]
The EC50 of the first is 5.2-fold higher: 4.5 nM for the first, 0.86 nM for the second. The second is the more potent here.

First: O=C(c1cn2cccc(-c3ccccc3OCC(F)(F)F)c2n1)N1Cc2cccnc2C1 [Compound 12, (5,7-dihydro-6H-pyrrolo[3,4-b]pyridin-6-yl)(8-(2-(2,2,2-trifluoroethoxy)phenyl)imidazo[1,2-a]pyridin-2-yl)methanone]
Second: O=C(NC1(CO)CCCC1)c1cn2cccc(-c3ccccc3OCC(F)(F)F)c2n1 [Compound 21, N-(1-(hydroxymethyl)cyclopentyl)-8-(2-(2,2,2-trifluoroethoxy)phenyl)imidazo[1,2-a]pyridine-2-carboxamide]
The EC50 of the first is 3.3-fold higher: 36 nM for the first, 11 nM for the second.

`CC(C)(C)NC(=O)c1cn2cc(F)cc(-c3ccccc3OCC(F)(F)F)c2n1` [Compound 13, N-(tert-butyl)-6-fluoro-8-(2-(2,2,2-trifluoroethoxy)phenyl)imidazo[1,2-a]pyridine-2-carboxamide] and `O=C(NC1CCCC1)c1cn2cc(F)cc(-c3ccccc3OCC(F)(F)F)c2n1` [Compound 28, N-cyclopentyl-6-fluoro-8-(2-(2,2,2-trifluoroethoxy)phenyl)imidazo[1,2-a]pyridine-2-carboxamide] are within 1.5-fold of each other in EC50: 5.8 nM for the first, 7.4 nM for the second.

Compared with `O=C(Nc1cccnc1)c1cn2cc(C(F)(F)F)cc(-c3ccccc3OCC(F)(F)F)c2n1` [Compound 15, N-(pyridin-3-yl)-8-(2-(2,2,2-trifluoroethoxy)phenyl)-6-(trifluoromethyl)imidazo[1,2-a]pyridine-2-carboxamide], `O=C(N[C@H]1CC[C@H](O)CC1)c1cn2cc(C(F)(F)F)cc(-c3ccccc3OCC(F)(F)F)c2n1` [Compound 36, N-(trans-4-hydroxycyclohexyl)-8-(2-(2,2,2-trifluoroethoxy)phenyl)-6-(trifluoromethyl)imidazo[1,2-a]pyridine-2-carboxamide] is 72-fold higher in EC50: 0.029 nM for the first, 2.1 nM for the second.

First: O=C(NC12CCC(CO)(CC1)CC2)c1cn2cccc(-c3ccccc3OCC(F)(F)F)c2n1 [Compound 18, N-(4-(hydroxymethyl)bicyclo[2.2.2]octan-1-yl)-8-(2-(2,2,2-trifluoroethoxy)phenyl)imidazo[1,2-a]pyridine-2-carboxamide]
Second: N#C[C@@]1(NC(=O)c2cn3cccc(-c4ccccc4OCC(F)(F)F)c3n2)CCOC1 [Compound 34, (S)-N-(3-cyanotetrahydrofuran-3-yl)-8-(2-(2,2,2-trifluoroethoxy)phenyl)imidazo[1,2-a]pyridine-2-carboxamide]
The EC50 of the first is 2.6-fold lower: 2.3 nM for the first, 5.9 nM for the second. The first is the more potent here.

Compared with `NC(CNC(=O)c1cn2cc(Cl)cc(-c3ccccc3OCC(F)(F)F)c2n1)C(F)(F)F` (centres unmarked) [Compound 23, N-(2-amino-3,3,3-trifluoropropyl)-6-chloro-8-(2-(2,2,2-trifluoroethoxy)phenyl)imidazo[1,2-a]pyridine-2-carboxamide], `O=C(NC12CCC(O)(CC1)C2)c1cn2cc(Cl)cc(-c3ccccc3OCC(F)(F)F)c2n1` [Compound 25, 6-chloro-N-(4-hydroxybicyclo[2.2.1]heptan-1-yl)-8-(2-(2,2,2-trifluoroethoxy)phenyl)imidazo[1,2-a]pyridine-2-carboxamide] is 4-fold lower in EC50: 10 nM for the first, 2.5 nM for the second.

First: CC1(O)CCC(NC(=O)c2cn3cc(F)cc(-c4ccccc4OCC(F)(F)F)c3n2)CC1 (stereo not drawn) [Compound 26, cis or trans-6-fluoro-N-(4-hydroxy-4-methylcyclohexyl)-8-(2-(2,2,2-trifluoroethoxy)phenyl)imidazo[1,2-a]pyridine-2-carboxamide]
Second: O=C(N[C@H]1CC[C@@H](CO)CC1)c1cn2cc(F)cc(-c3ccccc3OCC(F)(F)F)c2n1 [Compound 27, 6-fluoro-N-(cis-4-(hydroxymethyl)cyclohexyl)-8-(2-(2,2,2-trifluoroethoxy)phenyl)imidazo[1,2-a]pyridine-2-carboxamide]
The EC50 of the first is 1.6-fold lower: 0.79 nM for the first, 1.3 nM for the second.

First: O=C(N[C@H]1CC[C@H](CO)CC1)c1cn2cccc(-c3ccccc3OCC(F)(F)F)c2n1 [Compound 29, N-(trans-4-(hydroxymethyl)cyclohexyl)-8-(2-(2,2,2-trifluoroethoxy)phenyl)imidazo[1,2-a]pyridine-2-carboxamide]
Second: N#Cc1cc(-c2ccccc2OCC(F)(F)F)c2nc(C(=O)N[C@H]3CC[C@H](O)CC3)cn2c1 [Compound 39, 6-cyano-N-(trans-4-hydroxycyclohexyl)-8-(2-(2,2,2-trifluoroethoxy)phenyl)imidazo[1,2-a]pyridine-2-carboxamide]
The EC50 of the first is 6.7-fold lower: 2.1 nM for the first, 14 nM for the second. The first is the more potent here.

First: COc1ccc(Cl)cc1-c1cccn2cc(C(=O)NC34CCC(O)(CC3)C4)nc12 [Compound 30, 8-(5-chloro-2-methoxyphenyl)-N-(4-hydroxybicyclo[2.2.1]heptan-1-yl)imidazo[1,2-a]pyridine-2-carboxamide]
Second: O=C(N[C@H]1CC[C@H](O)CC1)c1nc2c(-c3ccccc3OCC(F)(F)F)cccn2c1F [Compound 32, 3-fluoro-N-(trans-4-hydroxycyclohexyl)-8-(2-(2,2,2-trifluoroethoxy)phenyl)imidazo[1,2-a]pyridine-2-carboxamide]
The EC50 of the first is 8.4-fold lower: 5.6 nM for the first, 47 nM for the second. The first is the more potent here.

`CC(C)(NC(=O)c1nc2c(-c3ccccc3OCC(F)(F)F)cccn2c1F)C(F)(F)F` [Compound 33, 3-fluoro-N-(1,1,1-trifluoro-2-methylpropan-2-yl)-8-(2-(2,2,2-trifluoroethoxy)phenyl)imidazo[1,2-a]pyridine-2-carboxamide] showed an EC50 of 14 nM.
